We go through one substance from patent US20230044268A1, “AN IMPROVED PROCESS FOR PREPARATION OF LIRAGLUTIDE” (SHILPA MEDICARE LIMITED, priority 2019, published 2023).

The nature of this series: storage stability of liraglutide obtained by the present process. Format: physicochemical. Particulars: storage of the isolated product; conditions not given. From the text:
The present invention also relates to a process for the preparation of liraglutide, which is substantially pure having a purity of greater or equal to 99.5% and meeting the ICH guidelines. Further, the liraglutide obtained as per the present process is found devoid of any other process related impurities and is adequately stable to handle and store for longer time (at least up to more than 6 months) without any significant or measurable change in its morphology and physicochemical characteristics.

Regarding Liraglutide, the “stable to handle and store without any significant or measurable change in morphology and physicochemical characteristics” value was “more than 6 months”.
